Experimental findings from patent publication US4665088A, “(E-Z)-4,5,9-trithiadodeca-1,6,11-triene 9-oxides” (The Research Foundation of State University of New York, priority 1984, dated 1987) are described below.

Where two headings read alike, the source gives them in different places.

What all share (type): cell-based
In assay [1] the test system is ADP-induced platelet aggregation (platelet rich, citrated, human blood plasma). Briefly: Inhibition of ADP-induced aggregation of platelets in platelet rich, citrated human blood plasma. Particulars: ADP (10 μmole), read-out: ID50 (the source's name). From the text:
Though the compounds of this invention have multiple uses such as for example as bacteriocides and fungicides, a particularly important utility is as an antithrombotic agent. Various chemicals are known to cause blood platelets to aggregate which in turn can result in blood clots in the blood circulatory system of living systems. Certain other compounds are known to prevent blood platelet aggregation and accordingly are known herein as antithrombotic agents, while other compounds prevent clotting of aggregated platelets and are called anticoagulants. Both are used in the treatment of phlebitis, stroke, coronary thrombosis and arteriosclerosis. […] The effectiveness of the suspected antithrombotic is compared to a control which has been treated with the agonist but which has not been treated with the antithrombotic and a quantitative measure of effectiveness is determined by ascertaining the concentration of suspected antithrombotic necessary to reduce by 50% the extent of platelet aggregation compared to the control. […]
Platelet rich, citrated, human blood plasma (250,000 platelets/μL) was prepared and divided into 0.45 ml. aliquots for use in determining ID50 levels of the subject compounds. The aliquots were treated with various quantities of (E)-ajoene, (Z)-ajoene, mixed (E,Z)-ajoene and mixed (E,Z)-ajoene together with prostacyclin and indomethacin. […]

Assay [2] deals with collagen-induced platelet aggregation (platelet rich, citrated, human blood plasma). As to the kind of experiment: Inhibition of collagen-induced aggregation of platelets in platelet rich, citrated human blood plasma. An excerpt:
(§1) Though the compounds of this invention have multiple uses such as for example as bacteriocides and fungicides, a particularly important utility is as an antithrombotic agent. Various chemicals are known to cause blood platelets to aggregate which in turn can result in blood clots in the blood circulatory system of living systems. Certain other compounds are known to prevent blood platelet aggregation and accordingly are known herein as antithrombotic agents, while other compounds prevent clotting of aggregated platelets and are called anticoagulants. Both are used in the treatment of phlebitis, stroke, coronary thrombosis and arteriosclerosis. In a typical test to determine antithrombotic activity, the suspected antithrombotic chemical is mixed with a suspension of blood platelets, incubated for a few minutes, and then the suspension is treated with a known amount of a known agonist (agent inducing aggregation). The effectiveness of the suspected antithrombotic is compared to a control which has been treated with the agonist but which has not been treated with the antithrombotic and a quantitative measure of effectiveness is determined by ascertaining the concentration of suspected antithrombotic necessary to reduce by 50% the extent of platelet aggregation compared to the control. This measurement is termed the ID50 of the antithrombotic. Typical agonists include collagen and ADP (adenosine diphosphate).
Platelet rich, citrated, human blood plasma (250,000 platelets/μL) was prepared and divided into 0.45 ml. aliquots for use in determining ID50 levels of the subject compounds. The aliquots were treated with various quantities of (E)-ajoene, (Z)-ajoene, mixed (E,Z)-ajoene and mixed (E,Z)-ajoene together with prostacyclin and indomethacin. A control was maintained free of antithrombotic. The thus treated aliquots were pre-incubated by maintaining in an aggregometer cuvette for 2 minutes at 37° C. with stirring (950 RPM). Each aliquot was then further treated with an appropriate amount of ADP (10 μmole) or collagen (1 μg/ml or 2 μg/ml). Aggregation in each aliquot was monitored for a period of 3-5 minutes and percentage aggregation was quantitated by a dual channel aggregometer which ascertained percent aggregation by comparison against a control of light transmittance through the sample.

Assay [3] has as its system platelet aggregation. Briefly: Antithrombotic/anticoagulant activity (general statement). Particulars: for antithrombotic activity when combined with the compounds of the invention: combined with the compounds of the instant claimed invention.
Description: as §1

Where [4] appears, read: COLLAGEN (2 μg/ml), read-out: ID50 (the source's name).
The mark [5] stands for this setting: COLLAGEN (1 μg/ml), (E,Z)-ajoene 70:30 together with Prostacyclin (aliquot 5), read-out: ID50 (the source's name).
[6] abbreviates: COLLAGEN (1 μg/ml), antithrombotic alone, read-out: ID50 (the source's name).

On to `C=CCSS/C=C\C[S+]([O-])CC=C` (stereo not shown) [(Z)-ajoene], for which the figures for the IC50 in assay [1] and in assay [2] (setting [4]) were 188 ± 38 µM and 196 ± 64 µM, respectively.

As for `C=CCSS/C=C/C[S+]([O-])CC=C` (stereo not shown) [(E)-ajoene], the IC50 in assay [1] turned out to be 213 µM; in assay [2] (setting [4]), 243 ± 90 µM.

For the compound `COc1ccc2c(c1)c(CC(=O)O)c(C)n2C(=O)c1ccc(Cl)cc1` [Indomethacin, reference compound], in assay [3], the “antithrombotic activity when combined with the compounds of the invention” value is listed as “particularly enhanced antithrombotic activity”. In addition, the IC50 in assay [2] (read-out: ID50) was 0.2 µM.

Regarding `C=CCSSC=CC[S+]([O-])CC=C` (stereo not shown) [(E,Z)-ajoene, (E,Z)-4,5,9-trithiadodeca-1,6,11-triene 9-oxide], in assay [3], the antithrombotic activity result is listed as “significant antithrombotic activity”. Also, the IC50 in assay [2] (COLLAGEN (1 μg/ml), (E,Z)-ajoene 70:30 together with Indomethacin (aliquot 7), read-out: ID50 (the source's name)) amounted to 4.5 µM; in assay [2] (setting [5]), 2.3 µM; in assay [2] (setting [6]), 92 µM.

For `CCCCC[C@H](O)/C=C/[C@@H]1[C@H]2C/C(=C/CCCC(=O)O)O[C@H]2C[C@H]1O` [Prostacyclin, reference compound], the “antithrombotic activity when combined with the compounds of the invention” value in assay [3] is on record as “particularly enhanced antithrombotic activity”. Also, the IC50 in assay [2] (setting [5]) and in assay [2] (setting [6]) was 0.001 µM in each case.
